Reference: US20240092835A1, “NOVEL PEPTIDES CAPABLE OF ALTERING NK CELL ACTIVITY” (Massachusetts Institute of Technology, priority 2022, published 2024)

Columns and labels:
NKG2A+/NKG2C− NK cells = assay: NK cell activation markers in NKG2A+/NKG2C- NK cells incubated with peptide and K562 expressing HLA-E (inhibition); assay type: cell-based, human; details: for percentage of CCL3+ NK cells / percentage of CD107a+ NK cells / percentage of IFNG+ NK cells / percentage of TNF+ NK cells: NKG2A+/NKG2C- NK cells, K562/HLA-E
Method: (§1) A human immortalized myelogenous leukemia cell line (K562), which expresses HLA-E was incubated with novel peptides (Table 1) derived from the human proteome or human cytomegalovirus proteome. […] Controls assessments were also performed using NKG2A−/NKG2C− cells (Tables 10-13). Inhibition was indicated by a decrease in percent cells positive for cell surface markers, while activation was indicated by an increase in percent cells positive for cell surface markers.

HLA-E = target: T1, HLA-E (Homo sapiens, UniProt P13747); assay: HLA-E surface stabilization assay with RMA-S/HLA-E cells; assay type: cell-based; details: 30 μM peptide, 16 hours, anti-HLA-E antibody
T1 construct: expressed in transfected cells; host or cells: RMA-S/HLA-E cells (antigen processing-defective lymphoma cell line)
T1 sequence (P13747 22-358): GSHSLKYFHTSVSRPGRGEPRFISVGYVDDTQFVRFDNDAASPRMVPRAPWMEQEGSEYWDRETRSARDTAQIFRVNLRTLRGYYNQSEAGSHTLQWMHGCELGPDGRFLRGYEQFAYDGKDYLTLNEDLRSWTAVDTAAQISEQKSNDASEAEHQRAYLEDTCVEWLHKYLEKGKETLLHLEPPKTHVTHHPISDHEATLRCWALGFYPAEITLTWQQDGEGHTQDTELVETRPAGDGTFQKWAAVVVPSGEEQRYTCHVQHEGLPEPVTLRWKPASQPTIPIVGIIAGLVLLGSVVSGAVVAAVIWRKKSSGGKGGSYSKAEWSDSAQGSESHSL
T1 sequence (P61769 21-119 partner): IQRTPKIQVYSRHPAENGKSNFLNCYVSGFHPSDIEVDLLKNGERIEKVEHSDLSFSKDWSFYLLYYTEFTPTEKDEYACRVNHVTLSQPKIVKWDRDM
Method: HLA-E surface expression was assessed by measuring geometric mean fluorescence intensity (GeoMFI) in RMA-S cells following immunofluorescence staining with an anti-HLA-E antibody (Table 14). Increased GeoMFI was indicative of increased HLA-E surface expression stability following novel peptide exposures (FIG. 3).

NKG2A−/NKG2C− NK cells = assay: NK cell activation markers in control NKG2A-/NKG2C- NK cells incubated with peptide and K562 expressing HLA-E; assay type: cell-based, human
Method: as §1

NKG2A−/NKG2C+ NK cells = assay: NK cell activation markers in NKG2A-/NKG2C+ NK cells incubated with peptide and K562 expressing HLA-E (activation); assay type: cell-based, human; details: for effect on NKG2A−/NKG2C+ NK cell activation (in words): K562 expressing HLA-E, CD107a, IFNG, TNF, CCL3; for percentage of CCL3+ NK cells / percentage of CD107+ NK cells / percentage of IFNG+ NK cells / percentage of TNF+ NK cells: NKG2A-/NKG2C+ NK cells, K562/HLA-E
Method: as §1

TLPERTLYL [human7, peptide ECEL1 269-277 derived from the human proteome]
effect on NKG2A+/NKG2C− NK cell inhibition (in words) (NKG2A+/NKG2C− NK cells; K562 expressing HLA-E, CD107a, IFNG, TNF, CCL3): strong inhibitory | percentage of CCL3+ NK cells (NKG2A+/NKG2C− NK cells; Trial 1): 1.37% | percentage of CD107a+ NK cells (NKG2A+/NKG2C− NK cells; Trial 1): 0.52% | percentage of IFNG+ NK cells (NKG2A+/NKG2C− NK cells; Trial 1): 0.13% | percentage of TNF+ NK cells (NKG2A+/NKG2C− NK cells; Trial 1): 0.05% | percentage of CCL3+ NK cells (NKG2A+/NKG2C− NK cells; Trial 2): 1.85% | percentage of CD107a+ NK cells (NKG2A+/NKG2C− NK cells; Trial 2): 0.72% | percentage of IFNG+ NK cells (NKG2A+/NKG2C− NK cells; Trial 2): 0.21% | percentage of TNF+ NK cells (NKG2A+/NKG2C− NK cells; Trial 2): 0.11% | percentage of CCL3+ NK cells (NKG2A+/NKG2C− NK cells; Trial 3): 1.62% | percentage of CD107a+ NK cells (NKG2A+/NKG2C− NK cells; Trial 3): 0.59% | percentage of IFNG+ NK cells (NKG2A+/NKG2C− NK cells; Trial 3): 0.49% | percentage of TNF+ NK cells (NKG2A+/NKG2C− NK cells; Trial 3): 0.1% | percentage of CCL3+ NK cells (NKG2A+/NKG2C− NK cells; Trial 4): 0.64% | percentage of CD107a+ NK cells (NKG2A+/NKG2C− NK cells; Trial 4): 0.71% | percentage of IFNG+ NK cells (NKG2A+/NKG2C− NK cells; Trial 4): 0.16% | percentage of TNF+ NK cells (NKG2A+/NKG2C− NK cells; Trial 4): 0.08% | percentage of CCL3+ NK cells (NKG2A+/NKG2C− NK cells; Trial 5): 1.26% | percentage of CD107a+ NK cells (NKG2A+/NKG2C− NK cells; Trial 5): 0.64% | percentage of IFNG+ NK cells (NKG2A+/NKG2C− NK cells; Trial 5): 0.28% | percentage of TNF+ NK cells (NKG2A+/NKG2C− NK cells; Trial 5): 0.18% | percentage of CCL3+ NK cells (NKG2A+/NKG2C− NK cells; Trial 6): 2.68% | percentage of CD107a+ NK cells (NKG2A+/NKG2C− NK cells; Trial 6): 1.96% | percentage of IFNG+ NK cells (NKG2A+/NKG2C− NK cells; Trial 6): 0.67% | percentage of TNF+ NK cells (NKG2A+/NKG2C− NK cells; Trial 6): 0.38% | HLA-E surface expression stability (GeoMFI) (HLA-E; Trial 1): 3203 GeoMFI | HLA-E surface expression stability (GeoMFI) (HLA-E; Trial 2): 3535 GeoMFI | HLA-E surface expression stability (GeoMFI) (HLA-E; Trial 3): 3903 GeoMFI | HLA-E surface expression stability (GeoMFI) (HLA-E; Trial 4): 4464 GeoMFI | percentage CCL3+ NK cells (NKG2A−/NKG2C− NK cells; Trial 1): 30.7% | percentage CD107+ NK cells (NKG2A−/NKG2C− NK cells; Trial 1): 21.8% | percentage TNF+ NK cells (NKG2A−/NKG2C− NK cells; Trial 1): 4.13% | percentage of IFNG+ NK cells (NKG2A−/NKG2C− NK cells; Trial 1): 13.3% | percentage CCL3+ NK cells (NKG2A−/NKG2C− NK cells; Trial 2): 49.5% | percentage CD107+ NK cells (NKG2A−/NKG2C− NK cells; Trial 2): 27.4% | percentage TNF+ NK cells (NKG2A−/NKG2C− NK cells; Trial 2): 7.88% | percentage of IFNG+ NK cells (NKG2A−/NKG2C− NK cells; Trial 2): 23.4% | percentage CCL3+ NK cells (NKG2A−/NKG2C− NK cells; Trial 3): 47% | percentage CD107+ NK cells (NKG2A−/NKG2C− NK cells; Trial 3): 41.8% | percentage TNF+ NK cells (NKG2A−/NKG2C− NK cells; Trial 3): 14.2% | percentage of IFNG+ NK cells (NKG2A−/NKG2C− NK cells; Trial 3): 34.9% | percentage CCL3+ NK cells (NKG2A−/NKG2C− NK cells; Trial 4): 27.4% | percentage CD107+ NK cells (NKG2A−/NKG2C− NK cells; Trial 4): 24% | percentage TNF+ NK cells (NKG2A−/NKG2C− NK cells; Trial 4): 7.92% | percentage of IFNG+ NK cells (NKG2A−/NKG2C− NK cells; Trial 4): 16.4% | percentage CCL3+ NK cells (NKG2A−/NKG2C− NK cells; Trial 5): 22.9% | percentage CD107+ NK cells (NKG2A−/NKG2C− NK cells; Trial 5): 17.2% | percentage TNF+ NK cells (NKG2A−/NKG2C− NK cells; Trial 5): 5.21% | percentage of IFNG+ NK cells (NKG2A−/NKG2C− NK cells; Trial 5): 12.7% | percentage CCL3+ NK cells (NKG2A−/NKG2C− NK cells; Trial 6): 22.6% | percentage CD107+ NK cells (NKG2A−/NKG2C− NK cells; Trial 6): 20.5% | percentage TNF+ NK cells (NKG2A−/NKG2C− NK cells; Trial 6): 4.34% | percentage of IFNG+ NK cells (NKG2A−/NKG2C− NK cells; Trial 6): 10.9% | effect on NKG2A−/NKG2C+ NK cell activation (in words) (NKG2A−/NKG2C+ NK cells; listed as SEQ ID NO. 11): strong activating effects | effect on NKG2A−/NKG2C+ NK cell activation (in words) (NKG2A−/NKG2C+ NK cells; listed as h7): strong inhibitory and activating effects | percentage of CCL3+ NK cells (NKG2A−/NKG2C+ NK cells; Trial 1): 77% | percentage of CD107+ NK cells (NKG2A−/NKG2C+ NK cells; Trial 1): 76.2% | percentage of IFNG+ NK cells (NKG2A−/NKG2C+ NK cells; Trial 1): 66.6% | percentage of TNF+ NK cells (NKG2A−/NKG2C+ NK cells; Trial 1): 54.5% | percentage of CCL3+ NK cells (NKG2A−/NKG2C+ NK cells; Trial 2): 92.4% | percentage of CD107+ NK cells (NKG2A−/NKG2C+ NK cells; Trial 2): 89.5% | percentage of IFNG+ NK cells (NKG2A−/NKG2C+ NK cells; Trial 2): 87.3% | percentage of TNF+ NK cells (NKG2A−/NKG2C+ NK cells; Trial 2): 79.9% | percentage of CCL3+ NK cells (NKG2A−/NKG2C+ NK cells; Trial 3): 87.5% | percentage of CD107+ NK cells (NKG2A−/NKG2C+ NK cells; Trial 3): 87.7% | percentage of IFNG+ NK cells (NKG2A−/NKG2C+ NK cells; Trial 3): 79.8% | percentage of TNF+ NK cells (NKG2A−/NKG2C+ NK cells; Trial 3): 70.1% | percentage of CCL3+ NK cells (NKG2A−/NKG2C+ NK cells; Trial 4): 61.5% | percentage of CD107+ NK cells (NKG2A−/NKG2C+ NK cells; Trial 4): 63.2% | percentage of IFNG+ NK cells (NKG2A−/NKG2C+ NK cells; Trial 4): 54.1% | percentage of TNF+ NK cells (NKG2A−/NKG2C+ NK cells; Trial 4): 47.8% | percentage of CCL3+ NK cells (NKG2A−/NKG2C+ NK cells; Trial 5): 77.3% | percentage of CD107+ NK cells (NKG2A−/NKG2C+ NK cells; Trial 5): 76.5% | percentage of IFNG+ NK cells (NKG2A−/NKG2C+ NK cells; Trial 5): 70% | percentage of TNF+ NK cells (NKG2A−/NKG2C+ NK cells; Trial 5): 66.1% | percentage of CCL3+ NK cells (NKG2A−/NKG2C+ NK cells; Trial 6): 55.6% | percentage of CD107+ NK cells (NKG2A−/NKG2C+ NK cells; Trial 6): 55.3% | percentage of IFNG+ NK cells (NKG2A−/NKG2C+ NK cells; Trial 6): 45.4% | percentage of TNF+ NK cells (NKG2A−/NKG2C+ NK cells; Trial 6): 37.8%
